From article PMC6384738, “Structure-Function Studies of Polymyxin B Lipononapeptides” (Molecules, 2019)
In brackets after ≈: the same amount, converted by molar mass. Where a SMILES comes first, the peptide text is derived from it. Bridges are numbered along the chain shown (N, C = ends). [ ]: non-standard residue; d: D form. The star is where a group is joined. Decanoyl(3R-OH) = CCCCCCC[C@@H](O)CC(=O)*; Octanoyl = CCCCCCCC(=O)*; Orn = NCCC[C@H](N)C(=O)O; Dab = NCC[C@H](N)C(=O)O

What was measured:
in vitro = settings: human
Experimental: (§1) All compounds synthesised in this study were assessed for their minimum inhibitory concentrations (MIC, mg/L) by broth microdilution assay against five antibiotic-sensitive and resistant ATCC reference strains covering the Gram-negative ESKAPE pathogens (Escherichia coli, Klebsiella pneumoniae, A. baumannii, and P. aeruginosa) (Table 1, Table 2 and Table 3). Staphylococcus aureus was also included as a representative Gram-positive bacterial strain. […] Polymyxin B 1, colistin 2, vancomycin and gentamicin were used as positive inhibitor comparator compounds. Compounds were counter-screened against human proximal tubular epithelial cells (HK-2), using LDH release as a general indicator of cellular toxicity.
Cytotoxicity to human kidney proximal tubular epithelial cell line, HK-2 (ATCC CRL-2190, sourced from ATCC; Manassas, VA, USA) was determined using the LDH assay as previously described. In brief, HK-2 cells were seeded as 2000 cells/well in black-walled clear bottom 384-well tissue culture treated plates (Corning, catalogue No. 3712) in DMEM/F12 medium (Gibco® 10565-042) containing 10% of Fetal Bovine Serum (FBS, Gibco® 10099-141) and incubated for 24 h at 37 °C, 5% CO2. Compounds were then added into each well with a concentration series from 300 µM to 2.3 µM in 2-fold dilutions. Colistin and polymyxin B were used as controls and tested at a final concentration range of 1 mM to 7.8 µM. The cells were incubated with the compounds for 24 h at 37 °C, 5% CO2. After the incubation, 5 µL of culture medium was added to 45 µL of LDH assay buffer (Biovision, K313-500) and incubated for 30 min at room temperature. The absorbance (ABS) was then read at 450 nm using a Polar Star Omega plate reader. The data was analysed by Prism 6 software (GraphPad Software, La Jolla, CA, USA). Results were calculated using the following equation: cytotoxicity %= (ABSsamples − ABSuntreated/ABS1%Triton X-100 − ABSuntreated) × 100.

P. aeruginosa ATTC 27853 = assay: microbe, parasite or virus in culture; settings: ATTC 27853, 18 h
Experimental: as §1

S. aureus ATCC 25923 = assay: microbe, parasite or virus in culture; settings: ATCC 25923, 18 h
Experimental: as §1

A. baumannii ATCC 19606 = assay: microbe, parasite or virus in culture; settings: ATCC 19606, 18 h
Experimental: as §1

[1] = system: K. pneumoniae ATCC 700603; assay: microbe, parasite or virus in culture; settings: ATCC 700603, 18 h
Experimental: as §1

K. pneumoniae ATCC 13833 = assay: microbe, parasite or virus in culture; settings: ATCC 13833, 18 h
Experimental: as §1

E. coli ATCC 25922 = assay: microbe, parasite or virus in culture; settings: ATCC 25922, 18 h
Experimental: as §1

K. pneumoniae BAA 2146 = assay: microbe, parasite or virus in culture; settings: BAA 2146, 18 h
Experimental: as §1

SMILES | CC50 at 24 h (in vitro) [µM] | MIC P. aeruginosa ATTC 27853 (P. aeruginosa ATTC 27853) [µg/mL] | MIC S. aureus ATCC 25923 (S. aureus ATCC 25923) [µg/mL] | MIC A. baumannii ATCC 19606 (A. baumannii ATCC 19606) [µg/mL] | MIC K. pneumoniae ATCC 700603 [1] [µg/mL] | MIC K. pneumoniae ATCC 13833 (K. pneumoniae ATCC 13833) [µg/mL] | MIC E. coli ATCC 25922 (E. coli ATCC 25922) [µg/mL] | MIC K. pneumoniae BAA 2146 (K. pneumoniae BAA 2146) [µg/mL]
CCCCCCC[C@@H](O)CC(=O)N[C@H](C(=O)NCC(=O)N[C@H]1CCNC(=O)[C@H]([C@@H](C)O)NC(=O)[C@H](CCN)NC(=O)[C@H](CCN)NC(=O)[C@H](CC(C)C)NC(=O)[C@@H](Cc2ccccc2)NC(=O)[C@H](CCN)NC1=O)[C@@H](C)O [Compound 52] ({Decanoyl(3R-OH)}-TG[Dab][Dab][dF]L[Dab][Dab]T; lactam 3-C) | > 300 | 4 (≈ 3.67 µM) | >32 | 32 (≈ 29.3 µM) | 4 (≈ 3.67 µM) | >32 | 1 (≈ 0.917 µM) | 4 (≈ 3.67 µM)
CCCCCCCC(=O)N[C@H](C(=O)N[C@@H](CCN)C(=O)N[C@H]1CCCCNC(=O)[C@H]([C@@H](C)O)NC(=O)[C@H](CCN)NC(=O)[C@H](CCN)NC(=O)[C@H](CC(C)C)NC(=O)[C@@H](Cc2ccccc2)NC(=O)[C@H](CCN)NC1=O)[C@@H](C)O [Compound 18] (Octanoyl-T[Dab]K[Dab][dF]L[Dab][Dab]T; lactam 3-C) | 88 | 16 (≈ 14.3 µM) | >32 | >32 | >32 | >32 | 16 (≈ 14.3 µM) | >32
CCCCCCCC(=O)N[C@H](C(=O)N[C@@H](CCCNC(=N)N)C(=O)N[C@H]1CCNC(=O)[C@H]([C@@H](C)O)NC(=O)[C@H](CCN)NC(=O)[C@H](CCN)NC(=O)[C@H](CC(C)C)NC(=O)[C@@H](Cc2ccccc2)NC(=O)[C@H](CCN)NC1=O)[C@@H](C)O [Compound 45] (Octanoyl-TR[Dab][Dab][dF]L[Dab][Dab]T; lactam 3-C) | > 300 | 4 (≈ 3.49 µM) | >32 | 32 (≈ 27.9 µM) | 8 (≈ 6.98 µM) | >32 | 2 (≈ 1.75 µM) | 16 (≈ 14 µM)
CCCCCCCC(=O)N[C@H](C(=O)N[C@@H](CCCN)C(=O)N[C@H]1CCNC(=O)[C@H]([C@@H](C)O)NC(=O)[C@H](CCN)NC(=O)[C@H](CCN)NC(=O)[C@H](CC(C)C)NC(=O)[C@@H](Cc2ccccc2)NC(=O)[C@H](CCN)NC1=O)[C@@H](C)O [Compound 40] (Octanoyl-T[Orn][Dab][Dab][dF]L[Dab][Dab]T; lactam 3-C) | > 300 | 2 (≈ 1.81 µM) | >32 | 16 (≈ 14.5 µM) | 4 (≈ 3.63 µM) | 8 (≈ 7.25 µM) | 2 (≈ 1.81 µM) | 4 (≈ 3.63 µM)
CCCCCCCC(=O)N[C@H](C(=O)N[C@@H](CC(N)=O)C(=O)N[C@H]1CCNC(=O)[C@H]([C@@H](C)O)NC(=O)[C@H](CCN)NC(=O)[C@H](CCN)NC(=O)[C@H](CC(C)C)NC(=O)[C@@H](Cc2ccccc2)NC(=O)[C@H](CCN)NC1=O)[C@@H](C)O [Compound 38] (Octanoyl-TN[Dab][Dab][dF]L[Dab][Dab]T; lactam 3-C) | 284 | >32 | >32 | >32 | >32 | >32 | 32 (≈ 29 µM) | >32
CC(C)C[C@@H]1NC(=O)[C@@H](Cc2ccccc2)NC(=O)[C@H](CCN)NC(=O)[C@@H](NC(=O)[C@H](CCN)NC(=O)[C@@H](N)[C@@H](C)O)CCNC(=O)[C@H]([C@@H](C)O)NC(=O)[C@H](CCN)NC(=O)[C@H](CCN)NC1=O [PMBN, polymyxin B nonapeptide, reference compound] (H-T[Dab][Dab][Dab][dF]L[Dab][Dab]T; lactam 3-C (inferred)) | > 300 | 2 (≈ 2.08 µM) | >32 | >32 | >32 | >32 | >32 | >32
